Experimental data as given in paper PMC8961646, “Fibroblast Activation Protein Specific Optical Imaging in Non-Small Cell Lung Cancer” (Frontiers in Oncology, 2022).
Non-standard residues stand in square brackets, D forms with d. Residues, ends and D or L forms follow the SMILES beside them. *: point of attachment. 5FAM = O=C1OC2(c3ccc(O)cc3Oc3cc(O)ccc32)c2ccc(C(=O)*)cc21; MethylRed = CN(C)c1ccc(/N=N/c2ccccc2C(=O)*)cc1; AEEA = NCCOCCOCC(=O)O

Assays:
rhFAP = target: T1, rhFAP (Homo sapiens, UniProt Q12884); experiment: Probe cleavage by recombinant human FAP (fluorescence plate assay, MALDI confirmation); format: biochemical
T1 construct: purchased R&D Systems
T1 sequence (Q12884 26-760 limits assumed): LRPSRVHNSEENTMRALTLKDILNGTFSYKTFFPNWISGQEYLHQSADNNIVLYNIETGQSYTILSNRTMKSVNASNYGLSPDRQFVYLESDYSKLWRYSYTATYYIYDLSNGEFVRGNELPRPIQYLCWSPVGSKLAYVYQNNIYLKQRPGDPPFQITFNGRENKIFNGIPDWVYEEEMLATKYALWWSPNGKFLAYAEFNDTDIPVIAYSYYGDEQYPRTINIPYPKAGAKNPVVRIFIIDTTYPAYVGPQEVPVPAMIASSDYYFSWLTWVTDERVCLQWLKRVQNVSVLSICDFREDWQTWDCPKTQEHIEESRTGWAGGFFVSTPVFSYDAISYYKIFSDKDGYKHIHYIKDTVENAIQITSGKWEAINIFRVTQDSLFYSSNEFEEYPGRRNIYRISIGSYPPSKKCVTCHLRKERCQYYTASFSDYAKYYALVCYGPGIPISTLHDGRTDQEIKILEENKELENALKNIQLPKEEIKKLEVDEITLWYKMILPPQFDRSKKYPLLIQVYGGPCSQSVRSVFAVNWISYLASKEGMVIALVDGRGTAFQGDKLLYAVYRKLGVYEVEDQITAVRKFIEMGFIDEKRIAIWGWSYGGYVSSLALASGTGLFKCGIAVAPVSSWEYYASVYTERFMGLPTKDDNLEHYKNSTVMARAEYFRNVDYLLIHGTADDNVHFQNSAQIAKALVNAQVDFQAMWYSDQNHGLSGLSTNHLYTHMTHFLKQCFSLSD

rhPREP = target: T2, rhPREP (Homo sapiens, UniProt P48147); experiment: Probe cleavage by recombinant human PREP (fluorescence plate assay, MALDI confirmation); format: biochemical
T2 construct: purchased R&D Systems
T2 sequence (P48147 1-710): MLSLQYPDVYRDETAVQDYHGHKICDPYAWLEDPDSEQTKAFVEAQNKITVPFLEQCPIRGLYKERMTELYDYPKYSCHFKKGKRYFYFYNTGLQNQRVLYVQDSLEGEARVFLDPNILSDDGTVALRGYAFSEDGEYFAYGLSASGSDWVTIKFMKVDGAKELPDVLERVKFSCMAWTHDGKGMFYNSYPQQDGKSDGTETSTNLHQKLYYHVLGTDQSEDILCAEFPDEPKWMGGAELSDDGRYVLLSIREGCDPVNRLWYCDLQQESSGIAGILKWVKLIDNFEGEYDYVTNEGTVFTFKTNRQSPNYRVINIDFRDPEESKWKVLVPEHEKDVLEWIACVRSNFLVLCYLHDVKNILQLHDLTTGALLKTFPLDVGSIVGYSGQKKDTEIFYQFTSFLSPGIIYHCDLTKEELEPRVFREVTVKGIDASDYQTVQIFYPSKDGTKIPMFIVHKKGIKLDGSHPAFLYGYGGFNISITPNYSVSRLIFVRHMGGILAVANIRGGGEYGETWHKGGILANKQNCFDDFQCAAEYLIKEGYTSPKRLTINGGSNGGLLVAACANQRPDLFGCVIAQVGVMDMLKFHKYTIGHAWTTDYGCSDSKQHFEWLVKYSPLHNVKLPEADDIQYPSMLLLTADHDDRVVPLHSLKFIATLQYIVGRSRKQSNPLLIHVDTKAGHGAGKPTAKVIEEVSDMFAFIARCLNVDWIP

[1] = test system: FAP+ CAFs from NSCLC patient samples; experiment: Probe cleavage on cancer associated fibroblasts (CAFs); format: cell-based, human; conditions: FAP3 5 µM, confluent CAF monolayer in 96 well plate, DPBS, read 480/530 nm for one hour, n=3 run in triplicate
Experimental: CAFs were isolated from NSCLC patient samples as previously described ([28]). Briefly, tissue samples were minced with forceps and incubated for an hour in prewarmed RPMI media (Gibco) containing collagenase IV [2 mg/ml] (Sigma) and DNase [0.2 mg/ml] (Sigma). Samples were spun at 350 g for 5 minutes and red blood cells were lysed from samples using RBC lysis buffer (BioLegend) in 10 ml for 10 minutes. Following a further spin at 350 g for 5 minutes, cells were seeded in culture flasks in DMEM containing 10% FCS, 1% Penicillin-Streptomycin, 1% L-Glutamine and 10% Insulin Transferrin Selenium (ITS). 24 hours after seeding, non-adherent cells were washed from the flasks. Cells were maintained by standard cell culture methods and by passage 2, the predominant cell type was CAFs, assessed by flow cytometry markers and morphology. CAFs between passage 4-9 were used to assess FAP probes and confirmed to be FAP^hi by flow cytometry.
CAFs were seeded into 96 well plates in a 100 µl media (complete DMEM as described above) at a density of 1x10^5 cells/ml to form a confluent monolayer within 24 hours. […] Immediately after adding imaging probes, the plate was transferred to the prewarmed spectrophotometer as above and read at 480/530 nm for one hour.

MMP 9 = MMP 9 (Homo sapiens, UniProt P14780); experiment: Probe assessment against recombinant MMP panel; format: biochemical; conditions: recombinant enzyme, n=2 run in triplicate
Sequence of MMP 9 (P14780 94-707): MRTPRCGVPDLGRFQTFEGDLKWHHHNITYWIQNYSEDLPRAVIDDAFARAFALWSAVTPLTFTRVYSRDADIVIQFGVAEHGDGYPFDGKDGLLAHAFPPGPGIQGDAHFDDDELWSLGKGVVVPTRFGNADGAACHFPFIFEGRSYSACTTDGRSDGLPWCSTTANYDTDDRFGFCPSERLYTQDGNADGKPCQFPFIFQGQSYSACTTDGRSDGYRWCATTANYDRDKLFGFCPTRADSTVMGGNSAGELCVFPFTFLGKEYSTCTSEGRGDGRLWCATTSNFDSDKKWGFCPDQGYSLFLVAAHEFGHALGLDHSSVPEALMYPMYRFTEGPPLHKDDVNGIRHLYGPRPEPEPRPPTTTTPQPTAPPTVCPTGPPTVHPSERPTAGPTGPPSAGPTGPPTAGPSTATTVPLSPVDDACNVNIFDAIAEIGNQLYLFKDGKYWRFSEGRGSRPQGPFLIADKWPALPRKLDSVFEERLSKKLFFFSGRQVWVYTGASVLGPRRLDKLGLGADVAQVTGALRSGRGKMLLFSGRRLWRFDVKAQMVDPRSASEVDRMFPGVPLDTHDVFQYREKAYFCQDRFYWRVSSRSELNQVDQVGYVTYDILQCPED

MMP 13 = MMP 13 (Homo sapiens, UniProt P45452); experiment: Probe assessment against recombinant MMP panel; format: biochemical; conditions: recombinant enzyme, n=2 run in triplicate
[2] = test system: NSCLC patient tissue samples; experiment: Fluorescence intensity and lifetime imaging (FLIM) of ex vivo NSCLC tissue; design: species or system human; conditions: FAP3 5 µM, ex vivo NSCLC samples N=5, imaged at 10-minute intervals to 40 minutes, 488 nm excitation
Experimental: For imaging solutions, varying concentrations of rhFAP were prepared in blackened eppendorfs and FAP3 to a final concentration of 5µM added and imaged as below. For biological specimens, NSCLC patient tissue samples from surgical resection were used fresh or snap frozen and stored at -80°C until required. Small fragments (approx. 4mm^3) incubated at 37°C in a 96 well plate in phenyl-red free DMEM (Gibco) containing 10% FCS, 1% Penicillin-streptomycin and 1% L-Glutamine. For the tissue fragments to be used as inhibitor controls, we added Talabostat at a dilution of 1:1000. Samples were then imaged using a clinically approved fluorescence lifetime imaging system used in conjunction with an imaging fibre ([30]) providing a 400 x 400 µm field of view. The imaging system incorporates a pulsed supercontinuum laser source, in this case tuned for excitation at 488 nm, with an achromatic confocal laser scanning system and a time-resolved spectrometer. This spectrometer contains a 512 channel single photon avalanche diode (SPAD) sensor ([31]) allowing for the rapid collection of time resolved spectral fluorescence lifetime data. Fluorescence intensity and lifetime images were collected using an image resolution of 160 x 160 pixels over a 498 – 570 nm spectral range with an exposure time of 13 µs per pixel. This led to an imaging rate of ~3 frames per second.
For each condition, the tumour samples were imaged using a fibre placed at the surface of the tissue (baseline), and then again at 10-minute intervals following the additions of equimolar concentrations of probe +/- Inhibitor. For imaging solutions, the fibre was held within the solution and imaged every 5 minutes. Each condition and time-point data for both fluorescence intensity and lifetime were collected. Imaging sequences had non-relevant frames removed, and the entire field of view was analysed. Analysis was undertaken using a bespoke software suite utilising the rapid lifetime determination (RLD) method ([32]). […]

rhDPPIV = rhDPPIV (Homo sapiens, UniProt P27487); experiment: Probe cleavage by recombinant human DPP-IV (exopeptidase activity); conditions: probe 5 µM, rhDPPIV 0.1 µg/ml, TRIS buffer pH 7.5, read 480/530 nm, n=3 run in triplicate
Sequence of rhDPPIV (P27487 29-766 limits assumed): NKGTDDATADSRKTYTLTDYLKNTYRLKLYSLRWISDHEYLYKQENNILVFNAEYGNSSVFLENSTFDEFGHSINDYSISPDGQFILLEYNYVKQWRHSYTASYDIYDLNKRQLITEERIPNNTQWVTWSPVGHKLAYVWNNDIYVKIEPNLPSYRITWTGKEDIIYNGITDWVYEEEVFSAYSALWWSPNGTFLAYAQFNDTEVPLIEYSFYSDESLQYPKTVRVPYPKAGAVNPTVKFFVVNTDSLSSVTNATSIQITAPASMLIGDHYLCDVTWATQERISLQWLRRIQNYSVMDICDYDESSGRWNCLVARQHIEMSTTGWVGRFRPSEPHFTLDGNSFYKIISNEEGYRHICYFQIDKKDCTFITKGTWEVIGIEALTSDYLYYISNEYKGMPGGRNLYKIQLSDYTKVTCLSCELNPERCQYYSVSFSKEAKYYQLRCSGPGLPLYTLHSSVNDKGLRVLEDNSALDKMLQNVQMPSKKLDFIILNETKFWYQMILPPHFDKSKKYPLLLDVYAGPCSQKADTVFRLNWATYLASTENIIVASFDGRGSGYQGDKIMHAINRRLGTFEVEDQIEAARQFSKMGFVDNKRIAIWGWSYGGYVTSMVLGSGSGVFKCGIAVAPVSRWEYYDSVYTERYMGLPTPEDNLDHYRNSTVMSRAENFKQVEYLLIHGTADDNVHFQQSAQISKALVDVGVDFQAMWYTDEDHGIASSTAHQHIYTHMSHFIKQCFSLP
Experimental: Recombinant human enzymes [rhFAP (R&D Systems), rhPREP (R&D Systems) and rhDPPIV (Biolegend)] were stored in stocks at -70°C and diluted as required to be used at final concentration of 0.1 µg/ml. Enzymes were aliquoted upon receipt from the supplier and new stocks made from a fresh aliquot as required.
Assays were undertaken in triplicate in blackened 384 well plates on ice prior to spectral reads. […] All wells contained a final volume of 20 µl to include buffers, inhibitors (if used), substrates and recombinant human enzymes (at a concentration of 0.1 µg/ml unless otherwise stated). […] Plates were sealed with an optical plate sealer (Biolegend) and were read in a preheated spectrophotometer (Synergy Biotek) in monochromator-based mode at 380/460 nm for control substrates and 480/530 nm for synthesised FAP probes.

CC(C)[C@H](NC(=O)[C@@H](N)CCCCNC(=O)c1ccccc1/N=N/c1ccc(N(C)C)cc1)C(=O)N[C@H](CO)C(=O)N1CCC[C@H]1C(=O)N[C@@H](CC(N)=O)C(=O)N[C@@H](CCC(N)=O)C(=O)NCC(=O)N[C@@H](CCCCNC(=O)c1ccc2c(c1)C(=O)OC21c2ccc(O)cc2Oc2cc(O)ccc21)C(=O)NCCOCCOCC(=O)N[C@H](CCCCN)C(=O)NCCOCCOCC(=O)N[C@H](CCCCN)C(=O)NCCOCCOCC(=O)N[C@H](CCCCN)C(N)=O [FAP3] (H-K(MethylRed)V[dS]PNQGK(5FAM)[AEEA][dK][AEEA][dK][AEEA][dK]-NH2)
Cleavage of FAP3 by rhFAP confirmed by MALDI (rhFAP; MALDI-TOF read-out, cleavage post proline): confirming the cleavage
FAP specificity (over PREP) (rhFAP; probe 5 µM, rhFAP compared with rhPREP, each 0.1 µg/ml): demonstrated FAP specificity
Cleavage by rhPREP by MALDI (rhPREP; MALDI-TOF read-out): no cleavage
Cleavage by rhPREP (fluorescence signal) (rhPREP; probe 5 µM, rhPREP 0.1 µg/ml, TRIS buffer pH 7.5, read 480/530 nm, n=3 run in triplicate): no rhPREP cleavage
Cleavage by FAP+ CAFs (fluorescence) [1]: cleaved
Activity with MMP 9 (MMP 9): no activity
Activity with MMP 13 (MMP 13): no activity
Change in fluorescence intensity in NSCLC tissue ([2]; 37°C): increase in fluorescence intensity
Change in fluorescence lifetime in NSCLC tissue ([2]; RLD method): change to a longer lifetime signature
Cleavage by DPP-IV (exopeptidase activity, fluorescence signal) (rhDPPIV): no cleavage
